Data published in PMC8233901, “D-Amino Acid-Containing Lipopeptides Derived from the Lead Peptide BP100 with Activity against Plant Pathogens” (International Journal of Molecular Sciences, 2021).
Several values for one entry are separate records, joined by “and”; a condition that tells them apart may be missing. Equal entries are not always repeated. Where a SMILES comes first, the peptide text is derived from it. [ ]: non-standard residue; d: D form. The star is where a group is joined. Lauroyl = CCCCCCCCCCCC(=O)*; Hexanoyl = CCCCCC(=O)*; Butyryl = CCCC(=O)*

How the values were obtained:
tobacco leaves = test: Effect of peptide infiltration on tobacco leaves (lesion size); type: in vivo; conditions: ± confidence interval; for Size of the lesion (mm) 50 µM: 100 µL infiltrated into mesophyll of tobacco leaves
Protocol: The lipopeptides were evaluated for their effect upon infiltration on tobacco leaves as described previously. Peptide solutions of 50, 150 and 250 μM were infiltrated (100 μL) into the mesophylls of fully expanded tobacco leaves. Infiltrations were carried out in a single leaf, and for each peptide and dose, at least three leaves randomly distributed in different plants were infiltrated. Control infiltrations with water (negative control) or melittin (positive control) at the same molar concentration were performed. The appearance of symptoms on the leaves was followed for 48 h after infiltration and measured as a lesion diameter.

horse erythrocytes = test: Hemolytic activity (hemoglobin release from erythrocytes); type: cell-based; conditions: 37 °C, ± confidence interval (α = 0.05); for Hemolysis (%) 150 µM / Hemolysis (%) 250 µM / Hemolysis (%) 375 µM: relative to melittin
Protocol: The hemolytic activity of the compounds was evaluated by determining hemoglobin release from erythrocyte suspensions of horse blood (5% vol/vol) (Oxoid) as previously described. Blood was centrifuged at 6000 g for 5 min, washed three times with tris(hydroxymethyl)aminomethane (TRIS) buffer (10 mM TRIS, 150 mM NaCl, pH 7.2) and diluted 10 times. Compounds were solubilized in TRIS buffer at 750, 500, 300 and 100 μM and mixed with horse erythrocytes (1:1 v/v). The mixture was incubated under continuous shaking for 1 h at 37 °C. Then, the tubes were centrifuged at 3500 g for 10 min, 80 μL aliquots of the supernatant transferred to 100-well microplates (Bioscreen), diluted with 80 μL water, and the absorbance measured at 540 nm (Bioscreen). Complete hemolysis was obtained by the addition of melittin at 100 μM (Sigma-Aldrich Corporation, Madrid, Spain). The percentage of hemolysis (H) was calculated using the equation: H = 100 × [(Op−Ob)/(Om−Ob)], where Op is the density for a given compound concentration, Ob for the buffer, and Om for the melittin-positive control.

[1] = D-amino acid lipopeptides, lesion diameter, 48 h, at least three leaves
[2] = D-amino acid lipopeptides, 100 µL infiltrated into tobacco leaves, lesion diameter, 48 h, at least three leaves
[3] = D-amino acid lipopeptides, 250 µM, 100 µL infiltrated into tobacco leaves, lesion diameter, 48 h, at least three leaves
[4] = Table 2, 250 µM infiltrated into tobacco leaves
[5] = D-amino acid lipopeptides, TRIS buffer pH 7.2, 1 h
[6] = D-amino acid lipopeptides, 250 µM, TRIS buffer pH 7.2, 1 h

| SMILES | Size of the lesion (mm) 50 µM (tobacco leaves; [1]) [mm] | Size of the lesion (mm) 150 µM (tobacco leaves; [2]) [mm] | Size of the lesion (mm) 250 µM (tobacco leaves; [3]) [mm] | Size of the lesion (mm) 250 µM (tobacco leaves; [4]) [mm] | Hemolysis (%) 50 µM (horse erythrocytes; D-amino acid lipopeptides, 50 µM, TRIS buffer pH 7.2, 1 h, absorbance 540 nm, relative to melittin 100 µM) [%] | Hemolysis (%) 150 µM (horse erythrocytes; [5]) [%] | Hemolysis (%) 250 µM (horse erythrocytes; [6]) | Hemolysis (%) 375 µM (horse erythrocytes; [5]) [%] | Hemolysis (%) 250 µM (horse erythrocytes; Table 2, 250 µM, 1 h) [%] |
| --- | --- | --- | --- | --- | --- | --- | --- | --- | --- |
| CCCC(=O)NCCCC[C@H](NC(=O)[C@H](CCCCN)NC(=O)[C@H](CC(C)C)NC(=O)[C@@H](NC(=O)[C@H](CCCCN)NC(=O)[C@H](CCCCN)NC(=O)[C@@H](Cc1ccccc1)NC(=O)[C@H](CC(C)C)NC(=O)[C@H](CCCCN)NC(=O)[C@H](CCCCN)NC(C)=O)[C@@H](C)CC)C(=O)N[C@@H](CC(C)C)C(N)=O [BP475, Ac-KKLfKKILKK(COC3H7)L-NH2] (Ac-KKL[dF]KKILKK(Butyryl)L-NH2) | 5 ± 1 | 7 ± 2 | 10 ± 1 | 10 ± 1 | 0 ± 0 | 0 ± 0 | 0 ± 0% and 0% | 0 ± 0 |  |
| CCCCCC(=O)NCCCC[C@@H](NC(=O)[C@H](CC(C)C)NC(=O)[C@H](CCCCN)NC(=O)[C@H](CCCCN)NC(C)=O)C(=O)N[C@@H](CCCCN)C(=O)N[C@@H](CCCCN)C(=O)N[C@H](C(=O)N[C@@H](CC(C)C)C(=O)N[C@@H](CCCCN)C(=O)N[C@@H](Cc1ccc(O)cc1)C(=O)N[C@@H](CC(C)C)C(N)=O)[C@@H](C)CC [BP484, Ac-KKLk(COC5H11)KKILKYL-NH2] | 0 ± 0 | 2 ± 2 | 7 ± 1 | 7 ± 1 |  |  | 10 ± 2% |  |  |
| CCCC(=O)NCCCC[C@H](NC(=O)[C@@H](Cc1ccccc1)NC(=O)[C@H](CC(C)C)NC(=O)[C@H](CCCCN)NC(=O)[C@H](CCCCN)NC(C)=O)C(=O)N[C@@H](CCCCN)C(=O)N[C@H](C(=O)N[C@@H](CC(C)C)C(=O)N[C@@H](CCCCN)C(=O)N[C@@H](Cc1ccc(O)cc1)C(=O)N[C@@H](CC(C)C)C(N)=O)[C@@H](C)CC [BP498, Ac-KKLfK(COC3H7)KILKYL-NH2] | 4 ± 3 | 6 ± 2 | 6 ± 1 | 6 ± 1 |  |  | 21 ± 3% |  |  |
| CCCCCCCCCCCC(=O)NCCCC[C@H](NC(=O)[C@H](Cc1ccc(O)cc1)NC(=O)[C@H](CCCCN)NC(=O)[C@H](CC(C)C)NC(=O)[C@@H](NC(=O)[C@H](CCCCN)NC(=O)[C@H](CCCCN)NC(=O)[C@@H](Cc1ccccc1)NC(=O)[C@H](CC(C)C)NC(=O)[C@H](CCCCN)NC(=O)[C@H](CCCCN)NC(C)=O)[C@@H](C)CC)C(N)=O [BP476, Ac-KKLfKKILKYK(COC11H23)-NH2] (Ac-KKL[dF]KKILKYK(Lauroyl)-NH2) | 3 ± 0.6 | 3 ± 0.5 | 5 ± 0.5 | 5 ± 0.5 |  |  | 94 ± 10% | 94 ± 67 |  |
| CCCC(=O)NCCCC[C@H](NC(=O)[C@H](CCCCN)NC(=O)[C@@H](Cc1ccccc1)NC(=O)[C@H](CC(C)C)NC(=O)[C@H](CCCCN)NC(=O)[C@H](CCCCN)NC(C)=O)C(=O)N[C@H](C(=O)N[C@@H](CC(C)C)C(=O)N[C@@H](CCCCN)C(=O)N[C@@H](Cc1ccc(O)cc1)C(=O)N[C@@H](CC(C)C)C(N)=O)[C@@H](C)CC [BP473, Ac-KKLfKK(COC3H7)ILKYL-NH2] | 2 ± 2 | 4 ± 0.9 | 5 ± 2 | 5 ± 2 |  |  | 84 ± 11% |  |  |
| CCCCCCCCCCCC(=O)NCCCC[C@H](NC(=O)[C@H](CCCCN)NC(=O)[C@H](CCCCN)NC(C)=O)C(=O)N[C@H](Cc1ccccc1)C(=O)N[C@@H](CCCCN)C(=O)N[C@@H](CCCCN)C(=O)N[C@H](C(=O)N[C@@H](CC(C)C)C(=O)N[C@@H](CCCCN)C(=O)N[C@@H](Cc1ccc(O)cc1)C(=O)N[C@@H](CC(C)C)C(N)=O)[C@@H](C)CC [BP500, Ac-KKK(COC11H23)fKKILKYL-NH2] (Ac-KKK(Lauroyl)[dF]KKILKYL-NH2) | 3 ± 2 | 6 ± 2 | 9 ± 3 | 9 ± 3 |  | 71 ± 2 | 71 ± 8% |  |  |
| CCCCCC(=O)NCCCC[C@H](NC(=O)[C@H](CCCCN)NC(=O)[C@H](CCCCN)NC(=O)[C@@H](Cc1ccccc1)NC(=O)[C@H](CC(C)C)NC(=O)[C@H](CCCCN)NC(=O)[C@H](CCCCN)NC(C)=O)C(=O)N[C@@H](CC(C)C)C(=O)N[C@@H](CCCCN)C(=O)N[C@@H](Cc1ccc(O)cc1)C(=O)N[C@@H](CC(C)C)C(N)=O [BP494, Ac-KKLfKKK(COC5H11)LKYL-NH2] (Ac-KKL[dF]KKK(Hexanoyl)LKYL-NH2) | 1 ± 1 | 6 ± 1 | 8 ± 1 | 8 ± 1 |  |  |  |  | 0.2 ± 0.2 |
